According to patent publication US12655125B2 (SIRONAX LTD., priority 2020, dated 2026):

System: HT-29 cells
Test: HT29 Cells 0FBS Assay In Vitro (TNF-α/SMAC mimetic/zVAD-FMK induced necroptosis, CellTiter-Glo cell viability)
Assay type: cell-based
Conditions: Homo sapiens; HT-29 cells, FBS free medium, TNF-α (10 ng/ml), SMAC mimetic (6 uM), zVAD-FMK (10 μM), 20 hours; geometric mean EC50; read-out: Cell activity (EC50) of Compounds 1-116
How it was run: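 Viability was measured by ATP luminescence (CellTiter-Glo) after 20 h at 37° C of compound exposure in 10-point, 1:3 dilutions. Necroptosis in FBS-free HT-29 cultures was driven by a TNF-α (10 ng/ml), SMAC mimetic (6 μM) and zVAD-FMK (10 μM) cocktail. EC50 values are geometric means from duplicate curves.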

SMILES	EC50 [nM]
Cn1ncc(C#N)c1-c1ncc(F)c(OC2CN(C(=O)N3N=CC[C@H]3c3cc(F)cc(F)c3)C2)n1 [compound 48, (S)-5-(4-((1-(5-(3,5-difluorophenyl)-4,5-dihydro-1H-pyrazole-1-carbonyl)azetidin-3-yl)oxy)-5-fluoropyrimidin-2-yl)-1-methyl-1H-pyrazole-4-carbonitrile]	0.1 to 100
Cc1ncsc1-c1cc(OC2CN(C(=O)N3N=CC[C@H]3c3cc(F)cc(F)c3)C2)c(F)cn1 [compound 11, (S)-(5-(3,5-difluorophenyl)-4,5-dihydro-1H-pyrazol-1-yl)(3-((5-fluoro-2-(4-methylthiazol-5-yl)pyridin-4-yl)oxy)azetidin-1-yl)methanone]	0.1 to 100

Same assay, conditions: Homo sapiens; HT-29 cells, FBS free medium, TNF-α (10 ng/ml), SMAC mimetic (6 uM), zVAD-FMK (10 μM), 20 hours; geometric mean EC50; read-out: Cell activity (EC50) of Compounds 117-281

SMILES	EC50 [nM]
Cc1nn(-c2cc(OC3CN(C(=O)N4N=CC[C@H]4c4cc(F)cc(F)c4)C3)c(F)cn2)c(C)c1C(=O)NC1CCOCC1 [compound 216, (S)-1-(4-((1-(5-(3,5-difluorophenyl)-4,5-dihydro-1H-pyrazole-1-carbonyl)azetidin-3-yl)oxy)-5-fluoropyridin-2-yl)-3,5-dimethyl-N-(tetrahydro-2H-pyran-4-yl)-1H-pyrazole-4-carboxamide]	0.1 to 100
Cn1nc(CO)cc1-c1cc(OC2CN(C(=O)N3N=CC[C@H]3c3cc(F)cc(F)c3)C2)c(F)cn1 [compound 174, (S)-(5-(3,5-difluorophenyl)-4,5-dihydro-1H-pyrazol-1-yl)(3-((5-fluoro-2-(3-(hydroxymethyl)-1-methyl-1H-pyrazol-5-yl)pyridin-4-yl)oxy)azetidin-1-yl)methanone]	0.1 to 100
Cc1nn(C2COC2)c(C)c1-c1cc(OC2CN(C(=O)N3N=CC[C@H]3c3cc(F)cc(F)c3)C2)c(F)cn1 [compound 130, (S)-(5-(3,5-difluorophenyl)-4,5-dihydro-1H-pyrazol-1-yl)(3-((2-(3,5-dimethyl-1-(oxetan-3-yl)-1H-pyrazol-4-yl)-5-fluoropyridin-4-yl)oxy)azetidin-1-yl)methanone]	0.1 to 100
Cc1nn(-c2ncc(F)c(OC3CN(C(=O)N4N=CC[C@H]4c4cc(F)cc(F)c4)C3)n2)c(C)c1C(N)=O [compound 276, (S)-1-(4-((1-(5-(3,5-difluorophenyl)-4,5-dihydro-1H-pyrazole-1-carbonyl)azetidin-3-yl)oxy)-5-fluoropyrimidin-2-yl)-3,5-dimethyl-1H-pyrazole-4-carboxamide]	0.1 to 100
Cc1nn(-c2cc(OC3CN(C(=O)N4N=CC[C@H]4c4cc(F)cc(F)c4)C3)c(F)cn2)c(C)c1NC(=O)C1CC1 [compound 139, (S)—N-(1-(4-((1-(5-(3,5-difluorophenyl)-4,5-dihydro-1H-pyrazole-1-carbonyl)azetidin-3-yl)oxy)-5-fluoropyridin-2-yl)-3,5-dimethyl-1H-pyrazol-4-yl)cyclopropanecarboxamide]	0.1 to 100
